According to article PMC11672547, “Combination of Coevolutionary Information and Supervised Learning Enables Generation of Cyclic Peptide Inhibitors with Enhanced Potency from a Small Data Set” (ACS Central Science, 2024):
Like-named read-outs stand apart in the source and are kept apart here. Numbered stars: 1 amine (or outer) side, 2 acyl side, 3 side chain; on linkers, the order of the positions; unused ones are H or OH. Bridge positions count the residues as written; N and C are the ends. Peptide text beside a SMILES is read from it. TBMB = c1c(C[*:1])cc(C[*:3])cc1C[*:2]

Columns and labels:
[1] = biological target: T1, human urokinase-type plasminogen activator (huPA) (Homo sapiens, UniProt P00749); test: huPA inhibition, fluorogenic enzyme activity assay (Z-Gly-Gly-Arg-AMC), Ki by Cheng-Prusoff; assay type: biochemical; details: 25 °C
T1 construct: (UPA-LMW, Molecular Innovations, Novi, MI, USA) 1.5 nM; purchased Molecular Innovations UPA-LMW
Experimental: bicyclic peptides. The activity assay was performed by incubating […] huPA with 50 μM fluorogenic substrate Z-Gly-Gly-Arg-AMC (50 μM; Bachem, Bubendorf, Switzerland) and […]
NaCl, 10 mM MgCl2, 1mM CaCl2, 0.1% w/v BSA, 0.01% v/v Triton-X100 and 5% v/v DMSO.
The measurements were performed on a Tecan microplate reader (Tecan infinite 200 pro, Tecan Trading AG, Switzerland) using black microfluor 96-well plate Nunc MicroWell, (Thermo Fisher Scientific, Dreieich, Germany) The enzymatic reactions were performed at 25 °C for 30 min, under shacking with an excitation wavelength of 355 nm and an emission recording at 460 nm. The initial velocities were monitored as changes in fluorescence intensity. The sigmoidal curves were fitted to the data using the following non-linear regression equation for the inhibitory dose-response curves with variable slope (2): […]
where x is the peptide concentration, y is the residual percentage of protease activity and p is the hill slope. Half maximum inhibitory concentration (IC50) values were derived from the fitted curves from GraphPad Prism 8 8.0.0. software (GraphPad software, Inc., San Diego, California). The final Ki was subsequently determined using the Cheng-Prusoff equation (3): […]
where Km (115 μM) is the Michaelis constant for the hydrolysis of Z-Gly-Gly-Arg-AMC catalysed by huPA which has been determined by standard Michaelis-Menten equation.
Values were determined using either OriginPro 8G software (OriginLab Corporation, Northamppton, MA, USA) or GraphPad Prism 8.0.0. software (GraphPad software, Inc., San […]
Recombinant production of the catalytic domain of human urokinase-type […]
The low molecular weight (LMW) human urokinase-type plasminogen activator (huPA) comprising the truncated 23 amino acid peptide fragment of chain A (Lys136-Lys158 in […]

[2] = biological target: T1, human urokinase-type plasminogen activator (huPA); details: UK140 family of 31 phage-encoded bicyclic peptides; cited from earlier work
human factor XIIa = biological target: T2, human factor XIIa (Homo sapiens, UniProt P00748); test: Specificity determination, residual protease activity (fluorogenic substrate); assay type: biochemical; details: 25 °C, pH 7.4, Z-Gly-Gly-Arg-AMC 50 μM
T2 construct: human factor XIIa (IHFXIIa, Innovative Research,; purchased Innovative Research IHFXIIa
T2 sequence (P00748 373-615 limits assumed): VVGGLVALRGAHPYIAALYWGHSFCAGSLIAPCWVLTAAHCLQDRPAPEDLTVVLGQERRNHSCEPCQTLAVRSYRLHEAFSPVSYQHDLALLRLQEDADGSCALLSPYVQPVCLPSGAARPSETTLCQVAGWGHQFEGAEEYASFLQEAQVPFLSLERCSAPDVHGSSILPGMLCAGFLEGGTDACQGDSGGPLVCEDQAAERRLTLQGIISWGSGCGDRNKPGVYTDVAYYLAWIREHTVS
T2 sequence (P00748 20-372 partner limits assumed): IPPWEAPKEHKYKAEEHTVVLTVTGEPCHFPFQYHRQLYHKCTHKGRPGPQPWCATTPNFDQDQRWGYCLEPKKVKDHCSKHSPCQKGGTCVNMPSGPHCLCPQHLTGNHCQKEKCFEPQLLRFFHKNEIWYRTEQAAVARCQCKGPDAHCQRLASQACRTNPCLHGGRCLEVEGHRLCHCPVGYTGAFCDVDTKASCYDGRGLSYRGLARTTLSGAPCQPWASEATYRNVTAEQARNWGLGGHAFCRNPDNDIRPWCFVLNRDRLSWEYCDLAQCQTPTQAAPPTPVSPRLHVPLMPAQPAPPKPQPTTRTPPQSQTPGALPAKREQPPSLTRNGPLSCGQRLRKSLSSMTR
Experimental: (§1) 5% v/v DMSO. Final concentrations of serine proteases were the following: human uPA (UPA-LMW, Molecular Innovations, Novi, MI, USA) 1.5 nM, mouse uPA (MUPA-LMW, Molecular Innovations, Novi, MI, USA) 12 nM, human tPA (HTPATC; Molecular Innovations, Novi, MI, USA) 7.5 nM, mouse tPA (MTPA, Molecular Innovations, Novi, MI, USA) 6 nM, human trypsin (HTRYP, Molecular Innovations, Novi, MI, USA) 0.05 nM, human plasmin (HPLM, Molecular Innovations, Novi, MI, USA) 1.5 nM, human plasma kallikrein (IHPKA, Innovative Research, Novi, MI, USA) 0.5 nM, human thrombin (IHT, Innovative Research, Novi, MI, USA) 10 nM, and human factor XIIa (IHFXIIa, Innovative Research, Novi, MI, USA) 6 nM. Two-fold dilutions of UK970 bicyclic peptide inhibitor were prepared ranging from 1 mM to 125 nM for all the proteases. For human uPA an extra two-fold UK970 inhibitor dilution experiment was performed by using inhibitor concentrations ranging from 2000 nM to 0.12 nM. For the determination of the Ki inhibitory constants, the following fluorogenic substrates were used at final concentration of 50 μM: Z-Gly-Gly-Arg-AMC (for human uPA, murine uPA, human tPA, murine tPA, human trypsin, human thrombin and human factor XIIa; Bachem, Bubendorf, Switzerland), Z-Phe-Arg-AMC (for human plasma kallikrein; Bachem, Bubendorf, Switzerland) and H-D-Val-Leu-Lys-AMC (for human plasmin; Bachem, Bubendorf, Switzerland). The initial velocities were monitored as changes in fluorescence intensity during 30 min on a Tecan microplate reader (Tecan infinite 200 pro, Tecan Trading AG, Switzerland) using black microfluor 96-well plate Nunc MicroWell (Thermo Fisher Scientific, Dreieich, Germany). The enzymatic reactions were performed at 25 °C under shacking with an excitation wavelength of 355 nm and an emission recording at 460 nm.
(§2) Apparent equilibrium constants Kiapps values were determined by non-linear regression analyses of Vi/V0 versus [I]0 using equation (2). The final Kis were subsequently determined by correcting for the competitive effect of the substrate [S]0 using equation (3). The kinetic constants Kms for the hydrolysis of fluorogenic substrate, catalysed by each protease, were determined by standard Michaelis-Menten equation. Values were determined using either OriginPro 8G software (OriginLab Corporation, Northamppton, MA, USA) or GraphPad Prism 8.0.0. software (GraphPad software, Inc., San Diego, California). […]

human plasma kallikrein = biological target: T3, human plasma kallikrein (Homo sapiens, UniProt P03952); test: as above; assay type: biochemical; details: 25 °C, pH 7.4, Z-Phe-Arg-AMC 50 μM
T3 construct: purchased Innovative Research IHPKA
Experimental: as §1, §2

human plasmin = biological target: T4, human plasmin (Homo sapiens, UniProt P00747); test: as above; assay type: biochemical; details: 25 °C, pH 7.4, H-D-Val-Leu-Lys-AMC 50 μM
T4 construct: Bachem; purchased Molecular Innovations HPLM
Experimental: as §1, §2

human tPA (htPA) = biological target: T5, human tPA (htPA) (Homo sapiens, UniProt P00750); test: as above; assay type: biochemical; details: 25 °C, pH 7.4, Z-Gly-Gly-Arg-AMC 50 μM
T5 construct: purchased Molecular Innovations HTPATC
Experimental: as §1, §2

human thrombin = biological target: T6, human thrombin (Homo sapiens, UniProt P00734); test: as above; assay type: biochemical; details: 25 °C, pH 7.4, Z-Gly-Gly-Arg-AMC 50 μM
T6 construct: human thrombin (IHT, Innovative Research,; purchased Innovative Research IHT
Experimental: as §1, §2

murine tPA (mtPA) = biological target: T7, murine tPA (mtPA) (Mus musculus, UniProt P11214); test: as above; assay type: biochemical; details: 25 °C, pH 7.4, Z-Gly-Gly-Arg-AMC 50 μM
T7 construct: purchased Molecular Innovations MTPA
Experimental: as §1, §2

murine uPA (muPA) = biological target: T8, murine uPA (muPA) (Mus musculus, UniProt P06869); test: as above; assay type: biochemical; details: 25 °C, pH 7.4, Z-Gly-Gly-Arg-AMC 50 μM
T8 construct: mouse uPA (MUPA-LMW,; purchased Molecular Innovations MUPA-LMW
Experimental: as §1, §2

[3] = pH 7.4, substrate 50 μM, mean ± S.E. of at least three measurements, read-out: Ki

T5 sequence (P00750 311-562 limits assumed): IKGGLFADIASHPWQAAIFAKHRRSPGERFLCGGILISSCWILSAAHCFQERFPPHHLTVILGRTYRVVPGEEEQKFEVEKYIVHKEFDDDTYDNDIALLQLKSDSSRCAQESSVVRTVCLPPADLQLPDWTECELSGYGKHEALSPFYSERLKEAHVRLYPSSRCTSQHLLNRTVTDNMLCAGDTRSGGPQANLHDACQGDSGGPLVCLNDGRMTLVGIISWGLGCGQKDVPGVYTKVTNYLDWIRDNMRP
T5 sequence (P00750 36-310 partner limits assumed): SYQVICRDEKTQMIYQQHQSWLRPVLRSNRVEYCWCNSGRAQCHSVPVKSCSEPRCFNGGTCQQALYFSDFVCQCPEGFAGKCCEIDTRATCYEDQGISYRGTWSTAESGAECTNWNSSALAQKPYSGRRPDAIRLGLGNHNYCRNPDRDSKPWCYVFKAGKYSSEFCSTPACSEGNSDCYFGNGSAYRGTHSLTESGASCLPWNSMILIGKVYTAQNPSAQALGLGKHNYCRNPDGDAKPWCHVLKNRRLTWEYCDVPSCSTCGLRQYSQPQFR
T3 sequence (P03952 391-638 limits assumed): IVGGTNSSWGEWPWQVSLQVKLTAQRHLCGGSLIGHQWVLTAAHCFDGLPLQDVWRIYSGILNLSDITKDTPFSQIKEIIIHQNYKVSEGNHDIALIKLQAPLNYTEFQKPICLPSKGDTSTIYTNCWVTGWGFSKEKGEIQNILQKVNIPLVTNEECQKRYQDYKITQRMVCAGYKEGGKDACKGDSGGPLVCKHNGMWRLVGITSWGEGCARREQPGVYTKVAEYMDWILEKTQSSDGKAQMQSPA
T3 sequence (P03952 20-390 partner limits assumed): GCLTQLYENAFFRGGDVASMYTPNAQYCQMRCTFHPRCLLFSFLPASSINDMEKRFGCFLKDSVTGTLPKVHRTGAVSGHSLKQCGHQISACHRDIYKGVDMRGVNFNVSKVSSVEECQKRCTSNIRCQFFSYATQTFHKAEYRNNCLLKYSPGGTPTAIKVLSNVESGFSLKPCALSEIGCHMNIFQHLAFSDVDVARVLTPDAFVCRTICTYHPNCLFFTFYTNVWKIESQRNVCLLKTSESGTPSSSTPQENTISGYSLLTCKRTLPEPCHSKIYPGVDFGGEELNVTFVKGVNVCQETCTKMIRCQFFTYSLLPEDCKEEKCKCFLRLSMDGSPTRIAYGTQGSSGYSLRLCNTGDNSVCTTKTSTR
T8 sequence (P06869 180-433 limits assumed): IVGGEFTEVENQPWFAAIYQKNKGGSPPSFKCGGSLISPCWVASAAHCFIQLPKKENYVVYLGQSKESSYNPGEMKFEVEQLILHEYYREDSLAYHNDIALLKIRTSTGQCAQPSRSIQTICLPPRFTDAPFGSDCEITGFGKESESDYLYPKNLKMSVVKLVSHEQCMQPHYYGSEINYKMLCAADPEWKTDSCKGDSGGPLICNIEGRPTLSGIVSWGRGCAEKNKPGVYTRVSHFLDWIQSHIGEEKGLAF
T8 sequence (P06869 157-178 partner limits assumed): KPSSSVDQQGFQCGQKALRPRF
T4 sequence (P00747 581-810 limits assumed): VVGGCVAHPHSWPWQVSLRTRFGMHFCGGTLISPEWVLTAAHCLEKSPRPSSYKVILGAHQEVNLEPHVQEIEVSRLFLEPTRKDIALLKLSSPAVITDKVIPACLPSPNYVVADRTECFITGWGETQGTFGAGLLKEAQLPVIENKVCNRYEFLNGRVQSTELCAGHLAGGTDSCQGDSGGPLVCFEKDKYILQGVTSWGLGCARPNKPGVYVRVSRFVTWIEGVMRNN
T4 sequence (P00747 97-580 partner limits assumed): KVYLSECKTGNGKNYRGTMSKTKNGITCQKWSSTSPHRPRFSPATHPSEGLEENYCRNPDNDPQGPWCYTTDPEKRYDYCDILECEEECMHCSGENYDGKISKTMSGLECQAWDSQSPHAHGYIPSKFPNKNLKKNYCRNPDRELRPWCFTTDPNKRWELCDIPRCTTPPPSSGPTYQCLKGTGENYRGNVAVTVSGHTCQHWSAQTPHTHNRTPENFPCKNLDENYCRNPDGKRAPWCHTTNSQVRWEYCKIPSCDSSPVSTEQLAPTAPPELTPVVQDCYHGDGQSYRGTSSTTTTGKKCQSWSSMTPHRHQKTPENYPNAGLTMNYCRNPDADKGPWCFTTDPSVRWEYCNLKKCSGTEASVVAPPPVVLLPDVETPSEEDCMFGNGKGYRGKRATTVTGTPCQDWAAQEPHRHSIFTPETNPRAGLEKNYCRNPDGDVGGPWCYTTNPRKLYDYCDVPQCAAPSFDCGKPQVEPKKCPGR
T7 sequence (P11214 33-559): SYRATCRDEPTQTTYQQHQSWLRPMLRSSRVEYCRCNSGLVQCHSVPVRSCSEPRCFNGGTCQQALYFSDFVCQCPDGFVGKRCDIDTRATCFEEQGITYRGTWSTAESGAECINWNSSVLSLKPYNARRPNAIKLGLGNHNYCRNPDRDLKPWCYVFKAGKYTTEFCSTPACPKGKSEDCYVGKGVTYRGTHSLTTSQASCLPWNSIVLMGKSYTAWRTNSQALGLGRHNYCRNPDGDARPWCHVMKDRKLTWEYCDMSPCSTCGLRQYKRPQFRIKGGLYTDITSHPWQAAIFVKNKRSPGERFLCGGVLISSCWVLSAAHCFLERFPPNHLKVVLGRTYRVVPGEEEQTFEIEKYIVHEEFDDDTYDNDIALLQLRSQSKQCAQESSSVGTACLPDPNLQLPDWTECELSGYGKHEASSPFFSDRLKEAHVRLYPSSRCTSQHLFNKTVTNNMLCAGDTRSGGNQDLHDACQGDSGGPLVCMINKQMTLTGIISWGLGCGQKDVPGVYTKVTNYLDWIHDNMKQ

SMILES | Ki [1, 3] [µM] | Ki [2] [µM] | Ki ([1]; pH 7.4, Z-Gly-Gly-Arg-AMC 50 μM, read-out: Ki ± S.E.) [µM] | Ki (human factor XIIa) [µM] | Ki (human plasma kallikrein) [µM] | Ki (human plasmin) [µM] | Ki (human tPA (htPA)) [µM] | Ki (human thrombin) [µM] | Ki (murine tPA (mtPA)) [µM] | Ki (murine uPA (muPA)) [µM]
CC(C)[C@@H]1NC(=O)CNC(=O)[C@@H]2CSCc3cc(cc(c3)CSC[C@@H](C(=O)NCC(N)=O)NC(=O)[C@H](CO)NC(=O)[C@H](CO)NC(=O)[C@@H]3CCCN3C(=O)[C@H](CC(=O)O)NC1=O)CSC[C@H](NC(=O)[C@H](C)N)C(=O)N[C@@H](CC(N)=O)C(=O)N[C@@H](CO)C(=O)N[C@@H](CCCCN)C(=O)N[C@@H](Cc1ccccc1)C(=O)N[C@@H](CO)C(=O)NCC(=O)N2 [UK140, reference compound] (H-ACNSKFSGCGVDPSSCG-NH2; linker 2-9-16 via TBMB) | 0.202 | 0.2 |  |  |  |  |  |  |  | 
CC(C)[C@@H]1NC(=O)[C@H](Cc2ccccc2)NC(=O)[C@H](CCCNC(=N)N)NC(=O)[C@H](CO)NC(=O)[C@@H](NC(=O)[C@H](C)N)CSCc2cc3cc(c2)CSC[C@@H](C(=O)NCC(N)=O)NC(=O)[C@@H]2CCCN2C(=O)CNC(=O)CNC(=O)[C@H](CCCNC(=N)N)NC(=O)CNC(=O)[C@H](CCCNC(=N)N)NC(=O)[C@H](CSC3)NC(=O)[C@H](CC(=O)O)NC(=O)[C@H](C(C)C)NC1=O [UK970] (H-ACSRFVVDCRGRGGPCG-NH2; linker 2-9-16 via TBMB) | 0.0043 ± 0.0001 |  | 0.004 ± 0.001 | > 1000 | > 1000 | > 1000 | > 1000 | > 1000 | > 1000 | > 1000
